Measurements taken from ChEMBL document CHEMBL1909046, “DrugMatrix in vitro pharmacology data”.

Experiments:
[1] = biological target: 5-hydroxytryptamine receptor 4 (Cavia porcellus, UniProt O70528); assay type: cell membranes, Dunkin-Hartley, Striatum, Membrane; further: in other assays of this panel Not Active means under 50% inhibition at 10 µM
[2] = DRUGMATRIX: Interleukin IL-1 radioligand binding (ligand: [125I] interleukin 1beta); assay type: cell membranes, Membrane; details: nih3t3; Not Active = under 50% inhibition at 10 µM
[3] = biological target: T1, Polyunsaturated fatty acid lipoxygenase ALOX15 (Oryctolagus cuniculus, UniProt P12530); assay: biochemical; assay type: tissue-based, Reticulocytes;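 further: inhibition of 15-lipoxygenase enzyme activity measured with linoleic acid as the substrate; in other assays of this panel Not Active means under 50% inhibition at 10 µM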
T1 sequence (P12530 whole entry): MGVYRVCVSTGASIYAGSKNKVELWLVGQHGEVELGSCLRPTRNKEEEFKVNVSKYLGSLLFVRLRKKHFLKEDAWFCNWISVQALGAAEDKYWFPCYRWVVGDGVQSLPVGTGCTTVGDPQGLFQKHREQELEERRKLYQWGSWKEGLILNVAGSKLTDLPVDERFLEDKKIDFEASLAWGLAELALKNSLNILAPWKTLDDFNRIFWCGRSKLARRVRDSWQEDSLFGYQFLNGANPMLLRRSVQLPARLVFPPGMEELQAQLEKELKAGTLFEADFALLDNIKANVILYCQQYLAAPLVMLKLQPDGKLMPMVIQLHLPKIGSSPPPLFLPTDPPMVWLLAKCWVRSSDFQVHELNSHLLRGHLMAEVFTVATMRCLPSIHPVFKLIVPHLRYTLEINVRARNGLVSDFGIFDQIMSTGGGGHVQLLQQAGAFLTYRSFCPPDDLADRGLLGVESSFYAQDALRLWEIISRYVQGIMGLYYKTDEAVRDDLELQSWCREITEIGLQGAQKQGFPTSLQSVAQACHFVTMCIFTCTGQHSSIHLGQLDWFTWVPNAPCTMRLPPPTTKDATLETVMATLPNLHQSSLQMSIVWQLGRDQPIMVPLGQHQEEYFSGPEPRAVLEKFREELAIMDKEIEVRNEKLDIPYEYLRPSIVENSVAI

[4] = biological target: Kappa-type opioid receptor (Homo sapiens, UniProt P41145); assay: DRUGMATRIX: Opiate kappa (OP2, KOP) radioligand binding (ligand: [3H] Diprenorphine); assay type: cell membranes, HEK293, Membrane; details: hek293; Not Active = under 50% inhibition at 10 µM
Kappa-type opioid receptor, sequence (P41145 whole entry): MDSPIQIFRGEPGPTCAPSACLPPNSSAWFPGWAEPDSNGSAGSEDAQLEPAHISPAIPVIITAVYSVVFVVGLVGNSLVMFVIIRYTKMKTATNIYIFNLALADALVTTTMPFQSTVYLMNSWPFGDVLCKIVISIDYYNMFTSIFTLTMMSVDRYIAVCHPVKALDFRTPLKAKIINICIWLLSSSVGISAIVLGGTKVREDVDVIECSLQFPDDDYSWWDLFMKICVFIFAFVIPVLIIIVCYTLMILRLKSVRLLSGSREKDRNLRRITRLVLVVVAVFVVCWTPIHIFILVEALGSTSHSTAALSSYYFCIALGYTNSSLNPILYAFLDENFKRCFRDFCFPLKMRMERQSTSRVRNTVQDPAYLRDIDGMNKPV

5-hydroxytryptamine receptor 4, sequence (O70528 whole entry): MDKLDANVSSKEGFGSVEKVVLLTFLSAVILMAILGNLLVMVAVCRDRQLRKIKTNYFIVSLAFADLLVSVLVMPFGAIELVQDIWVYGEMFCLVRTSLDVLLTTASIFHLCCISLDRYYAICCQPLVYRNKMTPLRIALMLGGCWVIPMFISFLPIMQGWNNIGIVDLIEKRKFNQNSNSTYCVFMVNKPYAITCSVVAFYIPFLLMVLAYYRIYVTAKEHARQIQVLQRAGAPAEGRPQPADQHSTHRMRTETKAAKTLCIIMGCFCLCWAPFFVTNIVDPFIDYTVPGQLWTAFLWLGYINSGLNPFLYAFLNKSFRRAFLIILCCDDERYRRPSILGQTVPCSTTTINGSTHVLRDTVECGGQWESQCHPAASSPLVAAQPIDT

Row | SMILES | IC50 [1] | IC50 [2] | Ki [2] | IC50 ([3]; reticulocytes) | IC50 [4] | IC50 ([3]; read-out: IC50) [µM] | Ki [1]
1 | O=C/C=C/c1ccccc1 | Not Active | Not Active | Not Active | Not Active |  |  | 
2 | COc1ccc(C(=O)N2CCCC2=O)cc1 | Not Active | Not Active | Not Active | Not Active | Not Active |  | 
3 | CC[C@H](C)[C@H]1O[C@]2(C=C[C@@H]1C)C[C@@H]1C[C@@H](C/C=C(\C)[C@@H](O[C@H]3C[C@H](OC)[C@@H](O[C@H]4C[C@H](OC)[C@@H](O)[C@H](C)O4)[C@H](C)O3)[C@@H](C)/C=C/C=C3\CO[C@@H]4[C@H](O)C(C)=C[C@@H](C(=O)O1)[C@]34O)O2.CO[C@H]1C[C@H](O[C@H]2[C@H](C)O[C@@H](O[C@@H]3/C(C)=C/C[C@@H]4C[C@@H](C[C@]5(C=C[C@H](C)[C@@H](C(C)C)O5)O4)OC(=O)[C@@H]4C=C(C)[C@@H](O)[C@H]5OC/C(=C\C=C\[C@@H]3C)[C@]54O)C[C@@H]2OC)O[C@@H](C)[C@@H]1O [ABAMECTIN] | Not Active | Not Active | Not Active | Not Active | Not Active |  | 
4 | NCCCC(O)(P(=O)(O)O)P(=O)(O)O [ALENDRONIC ACID] | Not Active | Not Active | Not Active | Not Active | Not Active |  | 
5 | Cc1nnc2n1-c1ccc(Cl)cc1C(c1ccccc1)=NC2 [ALPRAZOLAM] | Not Active | Not Active | Not Active | Not Active |  |  | 
6 | Cn1c(=O)c2[nH]cnc2n(C)c1=O.Cn1c(=O)c2[nH]cnc2n(C)c1=O.NCCN [AMINOPHYLLINE] | Not Active | Not Active | Not Active | Not Active | Not Active |  | 
7 | CC1(C)S[C@@H]2[C@H](NC(=O)[C@H](N)c3ccccc3)C(=O)N2[C@H]1C(=O)O [AMPICILLIN] | Not Active | Not Active | Not Active | Not Active | Not Active |  | 
8 | COc1ccc(C2C(=O)c3ccccc3C2=O)cc1 [ANISINDIONE] | Not Active | Not Active | Not Active | Not Active | Not Active |  | 
9 | O=C1O[C@H]([C@@H](O)CO)C(O)=C1O [ASCORBIC ACID] | Not Active | Not Active | Not Active | Not Active | Not Active |  | 
10 | CN1[C@@H]2CC[C@H]1C[C@@H](OC(=O)C(CO)c1ccccc1)C2 (some centres not stated) [ATROPINE] | Not Active | Not Active | Not Active | Not Active | Not Active |  | 
11 | O=C(O)CCNC(=O)c1ccccc1 [BETAMIPRON] | Not Active | Not Active | Not Active | Not Active | Not Active |  | 
12 | Brc1c(NC2=NCCN2)ccc2nccnc12 [BRIMONIDINE] | Not Active | Not Active | Not Active | Not Active | Not Active |  | 
13 | CN/C(=N\CCSCc1nc[nH]c1C)NC#N [CIMETIDINE] | Not Active | Not Active | Not Active | Not Active | Not Active |  | 
14 | COc1cc(N)c(Cl)cc1C(=O)NC1CCN(CCCOc2ccc(F)cc2)CC1OC (configuration not stated) [CISAPRIDE] |  | Not Active | Not Active | Not Active | Not Active |  | 
15 | Nc1ccn([C@@H]2O[C@H](CO)[C@@H](O)[C@@H]2O)c(=O)n1 [CYTARABINE] | Not Active | Not Active | Not Active | Not Active | Not Active |  | 
16 | C[C@@H]1C[C@H]2[C@@H]3CCC4=CC(=O)C=C[C@]4(C)[C@@]3(F)[C@@H](O)C[C@]2(C)[C@@]1(O)C(=O)CO [DEXAMETHASONE] | Not Active | Not Active | Not Active | Not Active | Not Active |  | 
17 | CN(C)CC[C@@H](c1ccc(Cl)cc1)c1ccccn1 [DEXCHLORPHENIRAMINE] | Not Active | Not Active | Not Active | Not Active | Not Active |  | 
18 | C[C@H]1O[C@@H](n2cc(F)c(=O)[nH]c2=O)[C@H](O)[C@@H]1O [DOXIFLURIDINE] | Not Active | Not Active | Not Active | Not Active | Not Active |  | 
19 | Cn1c(=O)c2c(ncn2CC(O)CO)n(C)c1=O (configuration not stated) [DYPHYLLINE] | Not Active | Not Active | Not Active | Not Active | Not Active |  | 
20 | CC[C@H]1CN2CCc3cc(OC)c(OC)cc3[C@@H]2C[C@@H]1C[C@H]1NCCc2cc(OC)c(OC)cc21 [EMETINE] | Not Active | Not Active | Not Active | Not Active | Not Active |  | 

Row | SMILES | IC50 [1] | IC50 [2] | Ki [2] | IC50 ([3]; reticulocytes) | IC50 [4] | IC50 ([3]; read-out: IC50) [µM] | Ki [1]
21 | COC(=O)CCc1ccc(OCC(O)CNC(C)C)cc1 (configuration not stated) [ESMOLOL] | Not Active | Not Active | Not Active | Not Active | Not Active |  | 
22 | CCC1(C)CC(=O)NC1=O (configuration not stated) [ETHOSUXIMIDE] | Not Active | Not Active | Not Active | Not Active | Not Active |  | 
23 | C#C[C@]1(OC(C)=O)CC[C@H]2[C@@H]3CCC4=C[C@@H](OC(C)=O)CC[C@@H]4[C@H]3CC[C@@]21C [ETHYNODIOL DIACETATE] | Not Active | Not Active | Not Active | Not Active | Not Active |  | 
24 | COc1cc([C@@H]2c3cc4c(cc3[C@@H](O[C@@H]3O[C@@H]5CO[C@@H](C)O[C@H]5[C@H](O)[C@H]3O)[C@H]3COC(=O)[C@H]23)OCO4)cc(OC)c1O [ETOPOSIDE] | Not Active | Not Active | Not Active |  | Not Active | 3.19 | 
25 | C=CCc1ccc(O)c(OC)c1 [EUGENOL] | Not Active | Not Active | Not Active | Not Active | Not Active |  | 
26 | CC(C(=O)O)c1cccc(Oc2ccccc2)c1 (configuration not stated) [FENOPROFEN] | Not Active | Not Active | Not Active | Not Active | Not Active |  | 
27 | CC(C)(C)NC(=O)[C@H]1CC[C@H]2[C@@H]3CC[C@H]4NC(=O)C=C[C@]4(C)[C@H]3CC[C@]12C [FINASTERIDE] | Not Active | Not Active | Not Active | Not Active | Not Active |  | 
28 | Nc1ccn([C@@H]2O[C@H](CO)[C@@H](O)C2(F)F)c(=O)n1 [GEMCITABINE] | Not Active | Not Active | Not Active | Not Active | Not Active |  | 
29 | N=C(N)NC(=O)Cc1c(Cl)cccc1Cl [GUANFACINE] | Not Active | Not Active | Not Active | Not Active | Not Active |  | 
30 | NNc1nncc2ccccc12 [HYDRALAZINE] | Not Active | Not Active | Not Active |  | Not Active | 3.65 | 
31 | COc1ccc2[nH]cc(CCNC(C)=O)c2c1 [MELATONIN] | Not Active | Not Active | Not Active | Not Active | Not Active |  | 
32 | NC(=O)C[S+]([O-])C(c1ccccc1)c1ccccc1 (configuration not stated) [MODAFINIL] | Not Active | Not Active | Not Active | Not Active | Not Active |  | 
33 | O=C(O)c1cccnc1Nc1cccc(C(F)(F)F)c1 [NIFLUMIC ACID] | Not Active | Not Active | Not Active | Not Active | Not Active |  | 
34 | COC(=O)Nc1nc2ccc(C(=O)c3cccs3)cc2[nH]1 [NOCODAZOLE] | Not Active | Not Active | Not Active | Not Active | Not Active |  | 
35 | COC(=O)Nc1nc2ccc([S+]([O-])c3ccccc3)cc2[nH]1 (configuration not stated) [OXFENDAZOLE] | Not Active | Not Active | Not Active | Not Active | Not Active |  | 
36 | CCn1cc(C(=O)O)c(=O)c2cnc(N3CCCC3)nc21 [PIROMIDIC ACID] | Not Active | Not Active | Not Active | Not Active | Not Active |  | 
37 | C[n+]1ccccc1/C=N/O.[Cl-] [PRALIDOXIME CHLORIDE] |  | Not Active | Not Active | Not Active | Not Active |  | Not Active
38 | COc1cc2nc(N3CCN(C(=O)c4ccco4)CC3)nc(N)c2cc1OC [PRAZOSIN] | Not Active | Not Active | Not Active | Not Active | Not Active |  | 
39 | C[C@]12C=CC(=O)C=C1CC[C@@H]1[C@@H]2[C@@H](O)C[C@@]2(C)[C@H]1CC[C@]2(O)C(=O)CO [PREDNISOLONE] | Not Active | Not Active | Not Active | Not Active | Not Active |  | 
